Where a SMILES comes first, the peptide text is derived from it. [ ]: non-standard residue; d: D form. Gly(Dodecyl) = CCCCCCCCCCCC[C@H](N)C(=O)O
Assays:
Assay type in all cases: biochemical
[1] = molecular target: T1, PPM1A (Homo sapiens, UniProt P35813); assay: Off target phosphatase activity on phosphorylated REST peptide; conditions: 10000 nM RPP
T1 sequence (P35813 1-382): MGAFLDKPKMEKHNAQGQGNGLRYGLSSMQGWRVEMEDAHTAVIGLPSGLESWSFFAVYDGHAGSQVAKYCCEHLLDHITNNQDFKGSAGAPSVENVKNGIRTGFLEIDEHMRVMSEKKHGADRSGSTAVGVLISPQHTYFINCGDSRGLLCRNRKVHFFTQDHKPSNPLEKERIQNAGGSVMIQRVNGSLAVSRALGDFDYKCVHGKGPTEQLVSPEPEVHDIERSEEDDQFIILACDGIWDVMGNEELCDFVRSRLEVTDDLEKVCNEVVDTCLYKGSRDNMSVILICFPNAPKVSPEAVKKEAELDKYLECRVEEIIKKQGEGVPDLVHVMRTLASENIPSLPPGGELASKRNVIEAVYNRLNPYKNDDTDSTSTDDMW

[2] = molecular target: PP3CA (Homo sapiens, UniProt Q08209); assay: as above; conditions: 10000 nM RPP
[3] = molecular target: PPP1CA (Homo sapiens, UniProt P62136); assay: as above; conditions: 10000 nM RPP
[4] = molecular target: T2, PP5CA (Homo sapiens, UniProt P53041); assay: as above; conditions: 10000 nM RPP
T2 sequence (P53041 1-499): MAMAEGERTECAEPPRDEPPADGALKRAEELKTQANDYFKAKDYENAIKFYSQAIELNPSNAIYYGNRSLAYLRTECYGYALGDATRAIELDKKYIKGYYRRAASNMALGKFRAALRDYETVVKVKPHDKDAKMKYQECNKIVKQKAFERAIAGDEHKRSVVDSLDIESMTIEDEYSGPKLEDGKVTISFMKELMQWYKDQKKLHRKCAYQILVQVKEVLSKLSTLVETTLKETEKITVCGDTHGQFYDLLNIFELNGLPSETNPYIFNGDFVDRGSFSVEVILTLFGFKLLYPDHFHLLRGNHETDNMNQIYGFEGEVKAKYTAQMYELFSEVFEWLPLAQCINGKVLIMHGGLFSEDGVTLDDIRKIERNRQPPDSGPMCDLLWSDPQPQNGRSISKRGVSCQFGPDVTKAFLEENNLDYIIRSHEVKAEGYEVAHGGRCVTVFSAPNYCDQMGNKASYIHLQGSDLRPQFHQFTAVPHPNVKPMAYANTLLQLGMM

[5] = molecular target: T3, CTDSP1 (Homo sapiens, UniProt Q9GZU7); assay: In vitro CTDSP1 phosphatase activity on phosphorylated REST peptide; conditions: relative to water control
T3 construct: GSGS linker + His6 (C)
T3 sequence (Q9GZU7 with tags, fused parts or gaps): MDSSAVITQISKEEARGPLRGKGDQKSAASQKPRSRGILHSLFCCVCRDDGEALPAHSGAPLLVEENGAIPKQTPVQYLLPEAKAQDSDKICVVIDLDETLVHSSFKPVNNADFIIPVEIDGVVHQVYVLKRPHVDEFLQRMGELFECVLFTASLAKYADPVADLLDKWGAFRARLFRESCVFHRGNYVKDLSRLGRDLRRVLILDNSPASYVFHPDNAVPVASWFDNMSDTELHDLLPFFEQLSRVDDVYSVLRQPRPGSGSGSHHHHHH

PPP1CA, sequence (P62136 whole entry, species assumed): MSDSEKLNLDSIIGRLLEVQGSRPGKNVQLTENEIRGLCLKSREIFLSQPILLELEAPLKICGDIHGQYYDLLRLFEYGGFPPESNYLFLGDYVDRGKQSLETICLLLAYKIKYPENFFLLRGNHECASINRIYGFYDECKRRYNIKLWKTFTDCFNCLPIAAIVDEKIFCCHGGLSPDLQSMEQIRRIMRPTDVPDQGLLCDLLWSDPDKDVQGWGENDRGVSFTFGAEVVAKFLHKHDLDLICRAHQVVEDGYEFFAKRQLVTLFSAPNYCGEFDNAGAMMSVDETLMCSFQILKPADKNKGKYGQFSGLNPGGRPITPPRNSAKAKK

CCCCCCCCCCCC[C@@H]1NC(=O)[C@@H](CCCNC(=N)N)NC(=O)[C@@H](CCCNC(=N)N)NC(=O)[C@@H](Cc2c[nH]c3ccccc23)NC(=O)[C@@H](Cc2c[nH]c3ccccc23)NC(=O)[C@@H](CCCNC(=N)N)NC(=O)[C@@H](CCC(=O)O)NC(=O)[C@@H](CC(=O)O)NC(=O)[C@@H](CC(C)C)NC(=O)[C@@H](CCC(=O)O)NC(=O)[C@H]2CCCN2C(=O)[C@H]2CCCN2C(=O)[C@@H](CCC(=O)O)NC(=O)[C@H]2CCCN2C(=O)[C@H]2CCCN2C(=O)[C@@H](CC(C)C)NC(=O)[C@H]2CCCN2C(=O)[C@@H](CCCCN)NC(=O)[C@@H](CCCNC(=N)N)NC(=O)[C@@H](CCCNC(=N)N)NC(=O)[C@@H](CCCNC(=N)N)NC(=O)[C@@H](CCCNC(=N)N)NC(=O)[C@@H](CCCNC(=N)N)NC1=O [SEQ ID NO: 12] (cyclo([dR][dW][dW][dR][dR][Gly(Dodecyl)][dR][dR][dR][dR][dR][dK][dP][dL][dP][dP][dE][dP][dP][dE][dL][dD][dE]))
% Activity (Average N = 5) [1]: 102.786% | % Activity (Average N = 5) [2]: 100.222% | % Activity (Average N = 5) [3]: 101.136% | % Activity (Average N = 5) [4]: 97.902% | % Activity (Average N = 5) ([5]; 10 nM RPP): 89.97% | % Activity (Average N = 5) ([5]; 20 nM RPP): 48.7% | % Activity (Average N = 5) ([5]; 40 nM RPP): 34.46% | % Activity (Average N = 5) ([5]; 60 nM RPP): 31.17% | % Activity (Average N = 5) ([5]; 80 nM RPP): 22.67% | % Activity (Average N = 5) ([5]; 100 nM RPP): 13.72%

Reference: patent US12180255B2, “Compositions and methods for derepressing RE1 silencing transcription factor target genes” (Alcamena Stem Cell Therapeutics, LLC, priority 2019, dated 2024)
